# Source: the OligoGym collection
# HELM strings list units from the 5' end as sugar, base in round brackets, then linkage (d deoxyribose, r ribose, m 2'-O-methyl, p phosphodiester). Strings are as the collection lists them, not checked against the first reports. ss, as = sense and antisense strand
# Conditions: siRNA
# Note: test system not given here.
row,Substance,target mRNA knockdown [%]
1,RNA1{m(C)p.r(U)p.m(C)p.r(C)p.m(U)p.r(U)p.m(C)p.r(A)p.m(U)p.r(U)p.m(C)p.r(C)p.m(A)p.r(G)p.m(C)p.r(C)p.m(U)p.r(A)p.m(U)p.r(T)p.r(T)}|RNA2{r(A)p.r(U)p.r(A)p.r(G)p.r(G)p.r(C)p.r(U)p.r(G)p.r(G)p.r(A)p.r(A)p.r(U)p.r(G)p.r(A)p.r(A)p.r(G)p.r(G)p.r(A)p.r(G)p.r(T)p.r(T)}$$$RNA1{StrandType:ss}|RNA2{StrandType:as}$,51
2,RNA1{m(C)p.r(U)p.m(C)p.r(U)p.m(G)p.r(G)p.m(C)p.r(C)p.m(U)p.m(U)p.r(U)p.r(C)p.m(U)p.r(C)p.m(U)p.r(C)p.m(U)p.r(A)p.m(G)p.r(T)p.r(T)}|RNA2{r(C)p.r(U)p.r(A)p.r(G)p.r(A)p.r(G)p.r(A)p.r(G)p.r(A)p.r(A)p.r(A)p.r(G)p.r(G)p.r(C)p.r(C)p.r(A)p.r(G)p.r(A)p.r(G)p.r(T)p.r(T)}$$$RNA1{StrandType:ss}|RNA2{StrandType:as}$,24
3,RNA1{m(C)p.r(U)p.m(G)p.r(A)p.m(C)p.r(C)p.m(G)p.r(G)p.m(A)p.r(A)p.m(G)p.r(C)p.m(G)p.r(C)p.m(U)p.r(U)p.m(A)p.r(A)p.r(A)p.r(T)p.r(T)}|RNA2{r(U)p.r(U)p.r(U)p.r(A)p.r(A)p.r(G)p.r(C)p.r(G)p.m(C)p.r(U)p.r(U)p.r(C)p.m(C)p.r(G)p.r(G)p.r(U)p.m(C)p.r(A)p.r(G)p.r(T)p.r(T)}$$$RNA1{StrandType:ss}|RNA2{StrandType:as}$,27
4,RNA1{m(G)p.m(A)p.m(G)p.m(G)p.m(A)p.m(A)p.m(G)p.m(A)p.r(U)p.m(G)p.m(A)p.m(G)p.r(U)p.r(U)p.m(G)p.r(U)p.m(A)p.r(C)p.r(C)p.r(T)p.r(T)}|RNA2{r(G)p.r(G)p.r(U)p.r(A)p.r(C)p.r(A)p.r(A)p.r(C)p.r(U)p.r(C)p.r(A)p.r(U)p.r(C)p.r(U)p.r(U)p.r(C)p.r(C)p.r(U)p.r(C)p.r(T)p.r(T)}$$$RNA1{StrandType:ss}|RNA2{StrandType:as}$,70
5,RNA1{m(G)p.m(C)p.m(A)p.m(G)p.m(C)p.m(A)p.m(C)p.m(G)p.m(A)p.m(C)p.m(U)p.m(U)p.m(C)p.m(U)p.m(U)p.m(C)p.m(A)p.m(A)p.m(G)p.r(T)p.r(T)}|RNA2{m(C)p.m(U)p.m(U)p.m(G)p.m(A)p.m(A)p.m(G)p.m(A)p.m(A)p.m(G)p.m(U)p.m(C)p.m(G)p.m(U)p.m(G)p.m(C)p.m(U)p.m(G)p.m(C)p.r(T)p.r(T)}$$$RNA1{StrandType:ss}|RNA2{StrandType:as}$,0
6,RNA1{m(G)p.m(C)p.m(A)p.m(G)p.m(C)p.m(A)p.m(C)p.m(G)p.m(A)p.m(C)p.m(U)p.m(U)p.m(C)p.m(U)p.m(U)p.m(C)p.m(A)p.m(A)p.m(G)p.r(T)p.r(T)}|RNA2{r(C)p.r(U)p.r(U)p.r(G)p.r(A)p.r(A)p.r(G)p.r(A)p.r(A)p.r(G)p.r(U)p.r(C)p.r(G)p.r(U)p.r(G)p.r(C)p.r(U)p.r(G)p.r(C)p.r(T)p.r(T)}$$$RNA1{StrandType:ss}|RNA2{StrandType:as}$,25
7,RNA1{m(G)p.m(G)p.m(A)p.r(C)p.r(U)p.m(A)p.r(C)p.r(U)p.m(A)p.m(A)p.r(C)p.r(C)p.r(U)p.r(C)p.r(C)p.m(A)p.m(G)p.r(U)p.r(U)p.r(T)p.r(T)}|RNA2{r(A)p.r(A)p.r(C)p.r(U)p.r(G)p.r(G)p.r(A)p.r(G)p.r(G)p.r(U)p.r(U)p.r(A)p.r(G)p.r(U)p.r(A)p.r(G)p.r(U)p.r(C)p.r(C)p.r(T)p.r(T)}$$$RNA1{StrandType:ss}|RNA2{StrandType:as}$,65
8,RNA1{m(G)p.r(A)p.m(A)p.r(A)p.m(A)p.r(C)p.m(G)p.r(C)p.m(U)p.r(U)p.m(G)p.r(U)p.m(A)p.r(A)p.m(A)p.r(G)p.m(C)p.r(C)p.m(G)p.r(T)p.r(T)}|RNA2{r(C)p.r(G)p.r(G)p.r(C)p.r(U)p.r(U)p.r(U)p.m(A)p.r(C)p.m(A)p.m(A)p.r(G)p.r(C)p.r(G)p.r(U)p.r(U)p.r(U)p.r(U)p.r(C)p.r(T)p.r(T)}$$$RNA1{StrandType:ss}|RNA2{StrandType:as}$,23
9,RNA1{m(G)p.r(A)p.m(A)p.r(A)p.m(C)p.r(U)p.m(G)p.r(G)p.m(U)p.r(A)p.m(C)p.r(U)p.m(U)p.r(U)p.m(C)p.r(C)p.m(C)p.r(C)p.m(C)p.r(T)p.r(T)}|RNA2{r(G)p.r(G)p.r(G)p.r(G)p.r(G)p.r(A)p.r(A)p.r(A)p.r(G)p.r(U)p.r(A)p.r(C)p.r(C)p.r(A)p.r(G)p.r(U)p.r(U)p.r(U)p.r(C)p.r(T)p.r(T)}$$$RNA1{StrandType:ss}|RNA2{StrandType:as}$,57
10,RNA1{m(G)p.r(A)p.m(A)p.r(G)p.m(A)p.r(G)p.m(C)p.r(C)p.m(U)p.r(A)p.m(C)p.r(A)p.m(C)p.r(A)p.m(A)p.r(C)p.m(C)p.r(C)p.m(U)p.r(T)p.r(T)}|RNA2{r(A)p.m(G)p.m(G)p.m(G)p.r(U)p.r(U)p.m(G)p.r(U)p.m(G)p.r(U)p.r(A)p.m(G)p.m(G)p.r(C)p.r(U)p.r(C)p.r(U)p.r(U)p.r(C)p.r(T)p.r(T)}$$$RNA1{StrandType:ss}|RNA2{StrandType:as}$,43
11,RNA1{m(G)p.r(A)p.m(A)p.r(G)p.m(A)p.r(G)p.m(C)p.r(C)p.m(U)p.r(A)p.m(C)p.r(A)p.m(C)p.r(A)p.m(A)p.r(C)p.m(C)p.r(C)p.m(U)p.r(T)p.r(T)}|RNA2{r(A)p.r(G)p.r(G)p.r(G)p.r(U)p.r(U)p.r(G)p.r(U)p.m(G)p.r(U)p.m(A)p.r(G)p.m(G)p.r(C)p.m(U)p.r(C)p.m(U)p.r(U)p.m(C)p.r(T)p.r(T)}$$$RNA1{StrandType:ss}|RNA2{StrandType:as}$,50
12,RNA1{m(G)p.r(A)p.m(A)p.r(G)p.m(A)p.r(G)p.m(U)p.r(U)p.m(A)p.r(A)p.m(C)p.r(C)p.m(C)p.r(G)p.m(G)p.r(G)p.m(A)p.r(C)p.r(U)p.r(T)p.r(T)}|RNA2{r(A)p.r(G)p.r(U)p.r(C)p.r(C)p.r(C)p.r(G)p.r(G)p.r(G)p.r(U)p.r(U)p.r(A)p.r(A)p.r(C)p.r(U)p.r(C)p.r(U)p.r(U)p.r(C)p.r(T)p.r(T)}$$$RNA1{StrandType:ss}|RNA2{StrandType:as}$,17
13,RNA1{m(G)p.r(A)p.m(A)p.r(G)p.m(G)p.r(G)p.m(G)p.r(A)p.m(A)p.r(A)p.m(U)p.r(C)p.m(U)p.r(G)p.m(U)p.r(G)p.m(G)p.r(U)p.m(U)p.r(T)p.r(T)}|RNA2{r(A)p.r(A)p.r(C)p.r(C)p.r(A)p.r(C)p.r(A)p.r(G)p.r(A)p.r(U)p.r(U)p.r(U)p.r(C)p.r(C)p.r(C)p.r(C)p.r(U)p.r(U)p.r(C)p.r(T)p.r(T)}$$$RNA1{StrandType:ss}|RNA2{StrandType:as}$,41
14,RNA1{m(G)p.r(A)p.m(A)p.r(U)p.m(A)p.r(A)p.m(C)p.r(C)p.m(U)p.r(G)p.m(A)p.r(A)p.m(C)p.r(G)p.m(U)p.r(C)p.m(A)p.r(C)p.m(C)p.r(T)p.r(T)}|RNA2{r(G)p.r(G)p.r(U)p.r(G)p.m(A)p.r(C)p.r(G)p.r(U)p.r(U)p.r(C)p.m(A)p.r(G)p.r(G)p.r(U)p.r(U)p.m(A)p.r(U)p.r(U)p.r(C)p.r(T)p.r(T)}$$$RNA1{StrandType:ss}|RNA2{StrandType:as}$,21
15,RNA1{m(G)p.r(A)p.m(A)p.r(U)p.m(A)p.r(A)p.m(C)p.r(C)p.m(U)p.r(G)p.m(A)p.r(A)p.m(C)p.r(G)p.m(U)p.r(C)p.m(A)p.r(C)p.m(C)p.r(T)p.r(T)}|RNA2{r(G)p.r(G)p.r(U)p.r(G)p.r(A)p.r(C)p.r(G)p.r(U)p.r(U)p.r(C)p.r(A)p.r(G)p.r(G)p.r(U)p.r(U)p.r(A)p.r(U)p.r(U)p.r(C)p.r(T)p.r(T)}$$$RNA1{StrandType:ss}|RNA2{StrandType:as}$,17
